In ChEMBL document CHEMBL5291721, “A preclinical secondary pharmacology resource illuminates target-adverse drug reaction associations of marketed drugs” (Nat Commun, 2023):

How the values were obtained:
[1] = biological target: cGMP-inhibited 3',5'-cyclic phosphodiesterase 3A (Homo sapiens, UniProt Q14432); assay type: functional
Adenosine receptor A3 = biological target: T1, Adenosine receptor A3 (Homo sapiens, UniProt P0DMS8)
T1 sequence (P0DMS8 whole entry): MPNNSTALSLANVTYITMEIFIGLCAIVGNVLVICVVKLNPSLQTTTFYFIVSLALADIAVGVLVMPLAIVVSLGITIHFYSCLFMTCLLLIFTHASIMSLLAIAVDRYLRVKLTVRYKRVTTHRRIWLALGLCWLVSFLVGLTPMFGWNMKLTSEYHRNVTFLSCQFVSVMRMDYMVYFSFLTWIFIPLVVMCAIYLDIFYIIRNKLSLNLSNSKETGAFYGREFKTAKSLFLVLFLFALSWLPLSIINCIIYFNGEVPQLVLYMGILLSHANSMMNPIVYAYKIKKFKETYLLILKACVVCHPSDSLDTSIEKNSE

Progesterone receptor = biological target: T2, Progesterone receptor (Homo sapiens, UniProt P06401)
T2 sequence (P06401 whole entry): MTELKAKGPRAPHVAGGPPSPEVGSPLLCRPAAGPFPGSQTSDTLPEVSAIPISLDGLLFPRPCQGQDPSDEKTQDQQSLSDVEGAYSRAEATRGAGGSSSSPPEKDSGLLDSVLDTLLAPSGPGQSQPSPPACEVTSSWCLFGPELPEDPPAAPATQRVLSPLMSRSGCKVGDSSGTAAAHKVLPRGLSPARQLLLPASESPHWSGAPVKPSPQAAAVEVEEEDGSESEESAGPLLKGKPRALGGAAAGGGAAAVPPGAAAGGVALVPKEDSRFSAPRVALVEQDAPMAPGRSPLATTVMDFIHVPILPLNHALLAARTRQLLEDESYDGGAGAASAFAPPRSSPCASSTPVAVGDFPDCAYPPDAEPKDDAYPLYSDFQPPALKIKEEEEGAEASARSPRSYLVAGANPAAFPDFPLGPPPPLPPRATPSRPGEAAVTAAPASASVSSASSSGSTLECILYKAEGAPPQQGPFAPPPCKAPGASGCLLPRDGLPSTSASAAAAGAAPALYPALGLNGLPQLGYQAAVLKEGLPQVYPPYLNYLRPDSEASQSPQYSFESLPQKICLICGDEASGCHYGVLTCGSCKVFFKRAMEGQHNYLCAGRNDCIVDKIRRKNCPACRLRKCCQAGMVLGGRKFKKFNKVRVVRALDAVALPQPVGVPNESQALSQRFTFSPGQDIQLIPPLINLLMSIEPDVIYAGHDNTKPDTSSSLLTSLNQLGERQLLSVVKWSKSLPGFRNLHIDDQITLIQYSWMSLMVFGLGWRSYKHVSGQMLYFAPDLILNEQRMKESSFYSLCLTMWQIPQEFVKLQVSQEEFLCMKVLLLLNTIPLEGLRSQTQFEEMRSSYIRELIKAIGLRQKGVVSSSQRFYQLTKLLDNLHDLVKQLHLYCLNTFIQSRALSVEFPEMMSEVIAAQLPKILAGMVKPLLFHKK

[2] = biological target: Prostaglandin G/H synthase 1 (Homo sapiens, UniProt P23219); assay type: functional
Chain of Prostaglandin G/H synthase 1 (P23219 whole entry): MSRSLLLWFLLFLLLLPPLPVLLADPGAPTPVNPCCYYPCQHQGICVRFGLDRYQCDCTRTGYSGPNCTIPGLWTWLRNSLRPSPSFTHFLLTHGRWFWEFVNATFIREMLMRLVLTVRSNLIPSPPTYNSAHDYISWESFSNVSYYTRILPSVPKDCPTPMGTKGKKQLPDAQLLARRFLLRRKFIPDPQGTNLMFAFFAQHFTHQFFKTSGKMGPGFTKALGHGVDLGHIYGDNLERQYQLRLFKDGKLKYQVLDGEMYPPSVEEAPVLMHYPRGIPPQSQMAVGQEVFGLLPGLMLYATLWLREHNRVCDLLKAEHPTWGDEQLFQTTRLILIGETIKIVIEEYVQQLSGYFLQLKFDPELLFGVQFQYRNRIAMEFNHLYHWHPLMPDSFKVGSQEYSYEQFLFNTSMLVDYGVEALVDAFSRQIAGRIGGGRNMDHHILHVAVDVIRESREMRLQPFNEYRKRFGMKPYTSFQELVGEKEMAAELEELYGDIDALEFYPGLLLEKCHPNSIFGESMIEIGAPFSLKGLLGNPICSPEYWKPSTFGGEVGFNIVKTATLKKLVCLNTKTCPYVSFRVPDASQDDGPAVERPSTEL

[3] = biological target: T3, Alpha-1A adrenergic receptor (Homo sapiens, UniProt P35348); assay type: functional, cell-based
T3 sequence (P35348 whole entry): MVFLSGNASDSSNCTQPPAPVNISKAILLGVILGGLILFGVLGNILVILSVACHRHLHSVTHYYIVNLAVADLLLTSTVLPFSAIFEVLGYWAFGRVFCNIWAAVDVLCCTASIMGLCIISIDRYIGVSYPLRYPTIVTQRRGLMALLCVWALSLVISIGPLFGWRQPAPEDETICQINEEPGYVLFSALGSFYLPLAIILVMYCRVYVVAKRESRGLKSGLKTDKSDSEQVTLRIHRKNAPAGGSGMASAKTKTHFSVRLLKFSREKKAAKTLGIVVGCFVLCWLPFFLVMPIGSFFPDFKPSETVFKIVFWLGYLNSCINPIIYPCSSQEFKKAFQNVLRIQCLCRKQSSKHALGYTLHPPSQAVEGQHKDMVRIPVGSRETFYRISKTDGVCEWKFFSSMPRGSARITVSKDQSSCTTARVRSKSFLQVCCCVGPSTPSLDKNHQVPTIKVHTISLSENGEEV

Estrogen receptor = biological target: T4, Estrogen receptor (Homo sapiens, UniProt P03372)
T4 sequence (P03372 whole entry): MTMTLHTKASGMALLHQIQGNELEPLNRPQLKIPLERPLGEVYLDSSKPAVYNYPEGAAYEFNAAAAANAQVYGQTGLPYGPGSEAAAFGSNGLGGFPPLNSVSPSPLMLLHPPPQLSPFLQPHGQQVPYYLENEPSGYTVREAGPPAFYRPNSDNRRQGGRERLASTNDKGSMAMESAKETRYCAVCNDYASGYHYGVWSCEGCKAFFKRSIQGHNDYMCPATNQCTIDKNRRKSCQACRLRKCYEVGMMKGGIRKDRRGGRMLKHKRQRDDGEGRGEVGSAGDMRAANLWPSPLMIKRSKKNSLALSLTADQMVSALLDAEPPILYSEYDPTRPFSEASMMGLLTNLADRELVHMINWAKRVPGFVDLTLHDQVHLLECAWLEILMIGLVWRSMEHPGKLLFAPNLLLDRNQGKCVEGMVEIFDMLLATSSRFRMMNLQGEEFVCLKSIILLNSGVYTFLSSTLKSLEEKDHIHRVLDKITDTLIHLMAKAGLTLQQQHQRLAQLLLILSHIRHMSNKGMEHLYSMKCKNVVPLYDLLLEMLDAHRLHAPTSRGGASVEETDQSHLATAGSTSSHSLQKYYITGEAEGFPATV

Vasopressin V1a receptor = Vasopressin V1a receptor (Homo sapiens, UniProt P37288)
Chain of Vasopressin V1a receptor (P37288 whole entry): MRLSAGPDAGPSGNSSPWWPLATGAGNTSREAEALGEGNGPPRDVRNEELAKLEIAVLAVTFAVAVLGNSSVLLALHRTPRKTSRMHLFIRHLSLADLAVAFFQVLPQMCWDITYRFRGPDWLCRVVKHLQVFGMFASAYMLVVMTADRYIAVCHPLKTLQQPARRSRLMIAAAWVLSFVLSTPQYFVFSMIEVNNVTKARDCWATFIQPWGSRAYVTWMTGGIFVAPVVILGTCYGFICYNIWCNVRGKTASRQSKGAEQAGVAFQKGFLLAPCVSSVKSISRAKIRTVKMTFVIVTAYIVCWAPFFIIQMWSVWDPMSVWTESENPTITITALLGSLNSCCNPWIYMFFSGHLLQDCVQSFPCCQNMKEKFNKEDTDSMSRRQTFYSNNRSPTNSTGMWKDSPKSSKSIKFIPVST

Melanocortin receptor 4 = Melanocortin receptor 4 (Homo sapiens, UniProt P32245)
Chain of Melanocortin receptor 4 (P32245 whole entry): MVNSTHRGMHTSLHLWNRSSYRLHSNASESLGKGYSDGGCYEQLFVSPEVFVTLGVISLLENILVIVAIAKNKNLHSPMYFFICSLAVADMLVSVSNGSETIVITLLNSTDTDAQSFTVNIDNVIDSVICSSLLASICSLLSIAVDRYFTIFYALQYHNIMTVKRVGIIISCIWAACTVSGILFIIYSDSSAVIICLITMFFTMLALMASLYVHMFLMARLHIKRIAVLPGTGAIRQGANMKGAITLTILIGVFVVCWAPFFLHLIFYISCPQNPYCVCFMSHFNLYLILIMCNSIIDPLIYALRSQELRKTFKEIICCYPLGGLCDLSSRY

Endothelin-1 receptor = biological target: T5, Endothelin-1 receptor (Homo sapiens, UniProt P25101)
T5 sequence (P25101 whole entry): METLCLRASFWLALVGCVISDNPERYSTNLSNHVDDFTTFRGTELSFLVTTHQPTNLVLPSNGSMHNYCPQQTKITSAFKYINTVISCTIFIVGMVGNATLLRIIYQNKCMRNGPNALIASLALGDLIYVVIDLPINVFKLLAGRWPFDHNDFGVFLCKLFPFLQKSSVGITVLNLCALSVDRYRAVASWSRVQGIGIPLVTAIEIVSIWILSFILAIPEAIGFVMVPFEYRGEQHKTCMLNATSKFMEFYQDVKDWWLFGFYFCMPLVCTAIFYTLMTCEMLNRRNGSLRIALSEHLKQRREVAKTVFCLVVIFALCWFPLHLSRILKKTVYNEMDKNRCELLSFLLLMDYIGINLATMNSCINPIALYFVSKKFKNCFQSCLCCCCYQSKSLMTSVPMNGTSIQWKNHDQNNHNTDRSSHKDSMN
Also: assay procedure not described here.

Chain of cGMP-inhibited 3',5'-cyclic phosphodiesterase 3A (Q14432 whole entry): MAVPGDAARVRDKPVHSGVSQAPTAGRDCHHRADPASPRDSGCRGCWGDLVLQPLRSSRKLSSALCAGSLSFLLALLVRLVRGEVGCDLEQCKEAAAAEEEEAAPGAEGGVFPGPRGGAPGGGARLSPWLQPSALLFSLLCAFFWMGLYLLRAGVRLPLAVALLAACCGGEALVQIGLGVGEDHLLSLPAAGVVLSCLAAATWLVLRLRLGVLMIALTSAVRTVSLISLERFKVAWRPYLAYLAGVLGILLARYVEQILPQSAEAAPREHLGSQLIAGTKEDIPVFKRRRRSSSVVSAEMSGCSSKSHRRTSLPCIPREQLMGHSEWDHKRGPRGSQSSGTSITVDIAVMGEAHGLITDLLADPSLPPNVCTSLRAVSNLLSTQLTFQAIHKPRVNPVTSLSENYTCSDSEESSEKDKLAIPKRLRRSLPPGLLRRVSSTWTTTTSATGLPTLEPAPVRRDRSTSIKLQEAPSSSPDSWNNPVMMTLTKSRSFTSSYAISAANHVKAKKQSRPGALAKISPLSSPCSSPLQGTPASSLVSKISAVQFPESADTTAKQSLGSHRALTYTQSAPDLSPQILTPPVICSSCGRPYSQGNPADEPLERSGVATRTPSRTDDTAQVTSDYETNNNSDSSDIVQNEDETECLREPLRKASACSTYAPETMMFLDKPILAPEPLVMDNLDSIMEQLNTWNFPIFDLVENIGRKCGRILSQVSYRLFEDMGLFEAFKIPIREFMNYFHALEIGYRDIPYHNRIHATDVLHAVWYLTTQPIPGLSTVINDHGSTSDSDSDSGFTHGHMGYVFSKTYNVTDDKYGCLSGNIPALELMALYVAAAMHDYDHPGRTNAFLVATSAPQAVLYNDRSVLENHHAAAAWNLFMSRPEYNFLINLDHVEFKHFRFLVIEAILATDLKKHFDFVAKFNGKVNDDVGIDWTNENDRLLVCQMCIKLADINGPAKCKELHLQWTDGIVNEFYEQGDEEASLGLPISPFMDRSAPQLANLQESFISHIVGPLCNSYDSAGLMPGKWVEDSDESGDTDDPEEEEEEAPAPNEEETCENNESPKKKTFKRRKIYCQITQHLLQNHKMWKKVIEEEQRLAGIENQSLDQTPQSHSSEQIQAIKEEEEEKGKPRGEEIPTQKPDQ

SMILES	AC50 [1]	AC50 (Adenosine receptor A3)	AC50 (Progesterone receptor)	AC50 [2]	AC50 [3]	AC50 (Estrogen receptor)	AC50 (Vasopressin V1a receptor)	AC50 (Melanocortin receptor 4)	AC50 (Endothelin-1 receptor)
CC(=O)O[C@]1(C(C)=O)CC[C@H]2[C@@H]3C=C(Cl)C4=CC(=O)CC[C@]4(C)[C@H]3CC[C@@]21C [CHLORMADINONE ACETATE]	> 30 µM	21 µM	0.003 µM	> 30 µM	> 30 µM	> 30 µM			
COc1cc(N2CCC(N3CCN(C)CC3)CC2)ccc1Nc1ncc(Cl)c(Nc2ccccc2P(C)(C)=O)n1 [BRIGATINIB]	> 30 µM	> 30 µM	> 30 µM	> 30 µM	> 30 µM	> 30 µM			
CCCc1nc(C(C)(C)O)c(C(=O)O)n1Cc1ccc(-c2ccccc2-c2nnn[nH]2)cc1 [OLMESARTAN]	> 30 µM	> 30 µM	> 30 µM	> 30 µM	> 30 µM	> 30 µM			
c1ccc2c(c1)CCc1ccccc1N2C1CN2CCC1CC2 (centres undefined) [QUINUPRAMINE]	> 30 µM	> 30 µM	> 30 µM	> 30 µM	> 30 µM	> 30 µM			
Cc1cc(N)c2ccccc2[n+]1CCCCCCCCCC[n+]1c(C)cc(N)c2ccccc21	10 µM	8.73 µM	16 µM	14.8 µM	23.9 µM	20.8 µM			
CCOC(=O)N1CSC[C@H]1C(=O)O [TELMESTEINE]	> 30 µM	> 30 µM	> 30 µM	> 30 µM	> 30 µM	> 30 µM			
COC(=O)c1ccc(O)cc1 [METHYLPARABEN]	> 30 µM	> 30 µM	> 30 µM	> 30 µM	> 30 µM	> 30 µM			
CC(C(=O)O)c1ccc(-c2ccccc2)c(F)c1 (centres undefined) [FLURBIPROFEN]	> 30 µM	> 30 µM			> 30 µM	> 30 µM	> 10 µM	> 10 µM	
CC1=CCC(C(C)(C)O)CC1O (centres undefined) [SOBREROL]	> 10 µM	> 30 µM	> 30 µM	> 30 µM	> 30 µM	> 30 µM			
NCC(CC(=O)O)c1ccccc1 (centres undefined) [PHENIBUT]	> 30 µM	> 30 µM	> 30 µM	> 30 µM	> 30 µM	> 30 µM			
CN1C(=O)/C(=N\NC(N)=S)c2ccccc21 [METHISAZONE]	> 3 µM	13.9 µM	> 30 µM	> 10 µM	> 30 µM	> 30 µM			
CCOC(=O)[C@H](CCc1ccccc1)N[C@@H](C)C(=O)N(CC(=O)O)C1Cc2ccccc2C1	> 30 µM	> 30 µM	> 30 µM	> 30 µM	> 30 µM	> 30 µM			
Cc1ncc(COP(=O)(O)O)c(C=O)c1O [PYRIDOXAL PHOSPHATE ANHYDROUS]	> 30 µM	> 30 µM	> 30 µM	8.66 µM	> 30 µM	10.3 µM			
C[C@H](Cc1cc2c(c(C(N)=O)c1)N(CCCO)CC2)NCCOc1ccccc1OCC(F)(F)F [SILODOSIN]	> 30 µM	> 30 µM	> 30 µM	> 30 µM	> 30 µM	> 30 µM			
Cc1cnc(C(=O)NCCc2ccc(S(=O)(=O)NC(=O)NC3CCCCC3)cc2)cn1 [GLIPIZIDE]	> 30 µM		> 30 µM		14 µM	> 30 µM	> 10 µM	> 30 µM	> 30 µM
CC(C)(C)NC[C@H](O)COc1cccc2c1CCCC2=O [LEVOBUNOLOL]	> 30 µM	> 30 µM	> 30 µM	> 30 µM	> 30 µM	> 30 µM			
COc1cc2c(cc1OC)CC(=O)N(CCCN(C)C[C@H]1Cc3cc(OC)c(OC)cc31)CC2 [IVABRADINE]	> 30 µM	> 30 µM	> 30 µM	> 30 µM	> 30 µM	> 30 µM			
CC(N)Cc1ccc(O)cc1 (centres undefined) [HYDROXYAMPHETAMINE]	> 30 µM	> 30 µM	> 30 µM	> 30 µM	> 30 µM	> 30 µM			
CCN(CCCc1ccccc1)CCCc1ccccc1 [ALVERINE]	> 30 µM	> 30 µM	> 30 µM	> 30 µM	> 30 µM	> 30 µM			
CC(C)N(CCNC(=O)CN1CCCC1=O)C(C)C	> 30 µM	> 30 µM	> 30 µM	> 30 µM	> 30 µM	> 30 µM			
O=C(O)c1cn(C2CC2)c2cc(N3CCNCC3)c(F)cc2c1=O [CIPROFLOXACIN]	> 30 µM		> 30 µM			> 30 µM	> 10 µM	> 30 µM	> 30 µM
CCN(CC)C(=S)S [DITIOCARB]	> 30 µM		> 30 µM	> 30 µM	> 30 µM	> 30 µM			
NC(=O)OCC(O)COc1ccc(Cl)cc1 (centres undefined) [CHLORPHENESIN CARBAMATE]	> 30 µM	> 30 µM	> 30 µM	> 30 µM	> 30 µM	> 30 µM			
CN(C)CCOC(c1ccccc1)c1ccc(Br)cc1 (centres undefined) [BROMODIPHENHYDRAMINE]	> 30 µM	> 30 µM	> 30 µM	> 30 µM	> 30 µM	> 30 µM			
